Results reported in patent US20030229114A1, “Pyrroloquinoline quinone drugs as a neuroprotectant and methods of use thereof” (priority 2002, published 2003).
“And” between values parts separate entries of the source, which are not always exact repeats. Equal values may be shown once. “Also recorded” adds a separate entry of the source.

Test system: cultured rat forebrain neurons
Experiment: Measurement of intracellular cGMP in neuronal cultures (enzyme-linked immunoassay)
Type: cell-based
Experimental: Medium was not subsequently changed.
Intracellular cGMP was assayed by enzyme-linked immunoassay (Amersham). Cultures were washed three times, and then medium was replaced by EBSS with or without PQQ or SOD. The non-specific phosphodiesterase inhibitor, 3-isobutyl-1-methylxanthine (IBMX) at 100 μM was present in all conditions. DEA/NO, SIN-1 and peroxynitrite were added for 5 min, and then the medium was replaced with 200 μl of releasing reagent provided in the kit. The plates were agitated for 20 min at room temperature, and 20 μl of acetylation reagent was added. After 5 min, 50 μl samples were taken for assay.

O=C(O)c1cc(C(=O)O)c2c(n1)C(=O)C(=O)c1cc(C(=O)O)[nH]c1-2 [PQQ, Pyrroloquinoline quinone]
Intracellular cGMP content (DEA/NO 10 μM in the presence of PQQ 100 μM): 255±38 % of control | Intracellular cGMP content (ONOO− 100 μM in the presence of PQQ 100 μM): 142.5±16.2 % of control | Effect on cGMP levels in the presence of DEA/NO (PQQ 100 μM, DEA/NO 10 μM): did not significantly alter | Effect on cGMP accumulation induced by SIN-1 (PQQ 100 μM, SIN-1 100 μM): potentiated; also recorded: enhanced | Intracellular cGMP content (SIN-1 100 μM in the presence of PQQ 100 μM): 267±19.5 % of control and 313.5±45 % of control
